In ChEMBL document CHEMBL1201862, “PubChem BioAssay data set” (2004):
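Cells were grown in 96-well plates and exposed to each compound for 48 hours at five concentrations; endpoints were interpolated linearly between bracketing concentrations, or set to the highest concentration if not reached. GI50: concentration for 50% inhibition of growth.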 Active and inactive are the calls of the source. Rule as the data show it: active = GI50 up to about 1.1 µM and inactive = higher.

Tests used:
Experiment in all cases: DTP human tumour cell line panel, 48 h
[1] = system: NCI-H226
[2] = system: KM12
[3] = system: NCI-H23
[4] = system: RPMI-8226
[5] = system: UACC-257
[6] = system: OVCAR-4
[7] = system: IGROV-1
[8] = system: CCRF-CEM
[9] = system: SF-268
[10] = system: UACC-62
[11] = system: SNB-75
[12] = system: UO-31
[13] = system: A549
[14] = system: CAKI-1
[15] = system: 786-0
[16] = system: HOP-92
[17] = system: SR
[18] = system: Hs-578T
[19] = system: NCI/ADR-RES
[20] = system: BT-549

Measured: GI50

N#CC12C3C4CC5C6C4C1C6C(O)(C53)N2Cc1ccccc1 (configuration not stated)
inactive: [1] > 100 µM | [2] > 100 µM | [3] > 100 µM | [4] > 100 µM | [5] > 100 µM | [6] > 100 µM | [7] > 100 µM | [8] > 100 µM | [9] > 100 µM | [10] > 100 µM | [11] > 100 µM | [12] > 100 µM | [13] > 100 µM | [14] > 100 µM | [15] > 100 µM | [16] > 100 µM | [17] > 100 µM

CCCCCCCCCCCCCCCCCC(CCCCCCCCCCCCCCCCC)OP(=O)(O)O
inactive: [1] > 100 µM | [2] > 100 µM | [3] > 100 µM | [4] > 100 µM | [5] > 100 µM | [6] > 100 µM | [7] > 100 µM | [8] > 100 µM | [9] > 100 µM | [10] > 100 µM | [11] > 100 µM | [12] > 100 µM | [13] > 100 µM | [14] > 100 µM | [15] > 100 µM | [16] > 100 µM | [17] 42.9 µM

C=C(C(N)=O)c1ccc([N+](=O)[O-])o1
inactive: [1] 20.3 µM | [2] 16.7 µM | [3] 5.02 µM | [5] 8.51 µM | [6] 11.6 µM | [7] 10.6 µM | [8] 3.22 µM | [18] 36.4 µM | [9] 8.36 µM | [10] 7.03 µM | [11] 9.46 µM | [13] 15.1 µM | [14] 3.4 µM | [19] 15.5 µM | [15] 11.2 µM | [16] 6.49 µM | [17] 9.46 µM

CC1=NN(c2cccc(Cl)c2)C2(C1=Cc1ccc(O)cc1)C(Cl)C(=O)N2c1nc2ccccc2s1 (configuration not stated)
inactive: [1] 27.2 µM | [2] 22.4 µM | [3] 16 µM | [4] 17.5 µM | [5] 25.5 µM | [6] 22.6 µM | [7] 14.1 µM | [8] 28.6 µM | [18] 40.6 µM | [9] 19.6 µM | [12] 12.9 µM | [14] 27.1 µM | [19] 21.4 µM | [15] 24.3 µM | [16] 15.1 µM | [17] 19.9 µM

CC(O)CCCOC(c1ccccc1)(c1ccccc1)c1ccccc1 (configuration not stated)
inactive: [1] 16.1 µM | [2] 14.3 µM | [3] 14.1 µM | [4] 15.2 µM | [5] 16.3 µM | [6] 14.8 µM | [7] 15.7 µM | [8] 23.3 µM | [18] 18.7 µM | [9] 15.9 µM | [10] 13.9 µM | [11] 12.6 µM | [12] 13.7 µM | [13] 13.8 µM | [14] 16 µM | [19] 11.7 µM | [15] 16.5 µM | [16] 12.6 µM | [17] 20.1 µM

O=C1Nc2ccccc2[C@]12C[C@H]2c1ccccn1
inactive: [1] 62.8 µM | [2] > 100 µM | [3] > 100 µM | [4] > 100 µM | [5] > 100 µM | [6] > 100 µM | [7] > 100 µM | [8] > 100 µM | [9] > 100 µM | [10] > 100 µM | [12] > 100 µM | [13] > 100 µM | [14] > 100 µM | [19] > 100 µM | [20] > 100 µM | [15] > 100 µM | [16] > 100 µM

c1c[nH]c(-c2cccc3nsnc23)c1
inactive: [1] > 100 µM | [2] 30.8 µM | [3] > 100 µM | [4] 57.7 µM | [5] > 100 µM | [6] 38.8 µM | [7] 22.8 µM | [8] 93.1 µM | [9] > 100 µM | [10] 71.9 µM | [11] 49.4 µM | [12] 44.6 µM | [13] 72.3 µM | [14] 43.5 µM | [19] > 100 µM | [20] > 100 µM | [15] > 100 µM | [17] 25.1 µM

O=C(O)/C=C/c1ccc2c(c1)CC1(Cc3ccccc3C1)C2
inactive: [1] 33.7 µM | [2] 55.8 µM | [3] 57 µM | [4] 96.8 µM | [5] > 100 µM | [6] 39 µM | [7] 56.4 µM | [8] 91.2 µM | [18] > 100 µM | [10] > 100 µM | [12] 80 µM | [13] 34.8 µM | [19] 76.7 µM | [15] > 100 µM | [16] 52.2 µM | [17] 23.2 µM
